Measured values as given in ChEMBL document CHEMBL3880415, “Spiro (Piperidine-4,2''-Pyrrolidine)-1-(3,5-Trifluoromethyl Phenyl) Methylcarboxamides As NK1 Tachikynin Receptor Antagonists” (2011).

Each compound was assayed against Substance-P receptor (Homo sapiens, UniProt P25103) (assay: Antagonist at human NK1 receptor expressed in recombinant BacMam virus infected human U2OS cells assessed as inhibition of substance P-induced intracellular calcium release preincubated for 30 mins followed by substance P addition by Fluo-4 calcium dye-based FLIPR assay). Settings: not given.
Format: functional, cell-based

Sequence of Substance-P receptor (P25103 whole entry): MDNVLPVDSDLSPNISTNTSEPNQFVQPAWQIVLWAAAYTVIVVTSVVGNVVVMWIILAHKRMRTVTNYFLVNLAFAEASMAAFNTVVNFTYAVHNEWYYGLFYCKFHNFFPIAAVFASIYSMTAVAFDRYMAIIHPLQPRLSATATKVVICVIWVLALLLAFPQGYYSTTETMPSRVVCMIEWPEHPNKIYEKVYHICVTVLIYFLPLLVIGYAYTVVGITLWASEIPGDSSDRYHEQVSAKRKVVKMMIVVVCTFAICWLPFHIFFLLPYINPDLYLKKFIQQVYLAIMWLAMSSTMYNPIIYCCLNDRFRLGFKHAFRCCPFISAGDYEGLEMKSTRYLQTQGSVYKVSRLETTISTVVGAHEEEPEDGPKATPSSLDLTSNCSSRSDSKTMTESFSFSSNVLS

| Ki | SMILES |
| --- | --- |
| < 1 nM | Cc1cc(F)ccc1[C@H]1C[C@]2(CC[C@H](C(N)=O)N2)CCN1C(=O)N(C)[C@H](C)c1cc(C(F)(F)F)cc(C(F)(F)F)c1 |
| < 1 nM | Cc1cc(F)ccc1[C@H]1C[C@@]2(CCN1C(=O)N(C)[C@H](C)c1cc(C(F)(F)F)cc(C(F)(F)F)c1)CC(C(=O)O)CN2 (stereo not given in full) |
| < 1 nM | Cc1cc(F)ccc1[C@H]1C[C@]2(CC[C@@H](C(N)=O)N2)CCN1C(=O)N(C)[C@H](C)c1cc(C(F)(F)F)cc(C(F)(F)F)c1 |
| < 1 nM | Cc1cc(F)ccc1[C@H]1C[C@]2(CCCN2)CCN1C(=O)N(C)[C@H](C)c1cc(C(F)(F)F)cc(C(F)(F)F)c1 |
| < 1 nM | Cc1cc(F)ccc1[C@H]1C[C@]2(CC[C@H](C(N)=O)N2)CCN1C(=O)N(C)[C@@H](C)c1cc(C(F)(F)F)cc(C(F)(F)F)c1 |
| < 1 nM | Cc1cc(F)ccc1[C@H]1C[C@]2(CC[C@@H](C(N)=O)N2)CCN1C(=O)N(C)[C@@H](C)c1cc(C(F)(F)F)cc(C(F)(F)F)c1 |
| < 1 nM | Cc1cc(F)ccc1[C@H]1C[C@]2(CC[C@@H](C(N)=O)N2)CCN1C(=O)N(C)Cc1cc(C(F)(F)F)cc(C(F)(F)F)c1 |
| < 1 nM | Cc1cc(F)ccc1[C@H]1C[C@]2(CC[C@H](C(N)=O)N2)CCN1C(=O)N(C)Cc1cc(C(F)(F)F)cc(C(F)(F)F)c1 |

| SMILES | Ki |
| --- | --- |
| Cc1cc(F)ccc1[C@H]1C[C@@]2(CCN1C(=O)N(C)[C@H](C)c1cc(C(F)(F)F)cc(C(F)(F)F)c1)NCC[C@@H]2C(=O)O | < 1 nM |

Same assay, conditions: u2os

| pKi | SMILES |
| --- | --- |
| > 9 | Cc1cc(F)ccc1[C@H]1C[C@@]2(CCC(C(N)=O)N2)CCN1C(=O)N(C)[C@H](C)c1cc(C(F)(F)F)cc(C(F)(F)F)c1 (stereo not given in full) |
